Laboratory results published in patent publication US10202418B2, “Hydroxy-ethylene derivatives for the treatment of arthrosis” (MERCK PATENT GMBH, priority 2013, dated 2019).
Starred links: 1 amine or outer side, 2 acyl side, 3 side chain; linkers in the order of their positions; H or OH if unused. Non-standard residues stand in square brackets, D forms with d. Residues, ends and D or L forms follow the SMILES beside them. *: point of attachment. Hexanoyl(5S-NH,4S-OH,6-Ph) = O=C(CC[C@H](O)[C@H](Cc1ccccc1)N[*:1])[*:2]; Sta = CC(C)C[C@H](N)[C@@H](O)CC(=O)O; Isovaleryl = CC(C)CC(=O)*

How the values were obtained:
rat knee joint = assay: Anti-hyperalgesic effect in animals (carrageenan-injected rat knee joint, Hargreaves test); format: in vivo; settings: intra-articular, 30 minutes before CAR
Protocol: In order to induce an inflammation reaction, a carrageenan solution (CAR, 1%, 50 μl) was injected intra-articularly on one side into a rat knee joint. The uninjected side was used for control purposes. Six animals per group were used. The threshold was determined by means of a micrometer screw (medial-lateral on the knee joint), and the thermal hyperalgesia was determined by means of a directed infrared light source by the Hargreaves method (Hargreaves et al., 1988) on the sole of the foot. […] Experimental description of thermal hyperalgesia (Hargreaves test): the experimental animal is placed in a plastic chamber on a quartz sheet. Before testing, the experimental animal is firstly given about 5-15 minutes time to familiarise itself with the environment. As soon as the experimental animal no longer moves so frequently after the familiarisation phase (end of the exploration phase), the infrared light source, whose focus is in the plane of the glass bottom, is positioned directly beneath the rear paw to be stimulated. […] Light reflected by the paw is recorded as long as the experimental animal sits still. Withdrawal of the paw interrupts this reflection, after which the infrared light source is switched off and the time from switching on to switching off is recorded. […]

[1] = tested on: cartilage explant cultures; settings: pH 5.5, explant cultures; cited from earlier work
recombinant human renin = recombinant human renin (Homo sapiens (Human), UniProt P00797); assay: In-vitro fluorescence assay for identification of renin-inhibitory activity; format: biochemical; settings: renin 10 nM, pH 7.2
Protocol: In order to identify modulators of renin activity, a continuous enzymatic test was carried out with a synthetic peptide which carries a fluorescent group Edans (=(5-(aminoethyl)aminonaphthalenesulfonate) which is quenched by energy transfer from a Dabcyl (4′-dimethylaminoazobenzene-4-carboxylate) group on the same molecule, in Greiner 384-well microtitre plates. Cleavage of the peptidic substrate by renin causes an increase in the fluorescence intensity. In order to determine the efficacy of substances, the time-dependent increase in the fluorescence intensity in the presence of the substance was compared with the time-dependent increase in fluorescence in the absence of substances. The reference substance used was renin inhibitor 2 (Z-Arg-Arg-Pro-Phe-His-Sta-Ile-His N-Boc-Lys methyl ester Z) (Sigma-Aldrich). The substrate used was renin FRET substrate I (DABCYL-g-Abu-Ile-His-Pro-Phe-His-Leu-Val-Ile-His-Thr EDANS) (Anaspec, Fremont Calif.). The enzyme employed was recombinant human renin (Proteos, Kalamazoo, Mich.) in a final concentration of 10 nM. The test was carried out in 50 mM Mops buffer, 1.5% (v/v) of DMSO, 0.1% (w/v) of Igepal®, pH 7.2, 0.5% (w/v) of BSA. 2 μl of each substance solution with serially diluted substance concentration were added to in each case 4 μl of renin solution and incubated at room temperature for 15 min. The reaction was started by addition of 4 μl of substrate solution (final concentration 5 μM). After carrying out a starting-point fluorescence measurement (excitation wavelength 340 nm/emission wavelength 495 nm) using an Envision multilabel reader (Perkin Elmer), the reaction was incubated at 37° C. for 60 min. The amount of peptide fragment cleaved off during the reaction time was subsequently measured by determination of the increase in the fluorescence intensity at 495 nm (excitation wavelength 340 nm).

[2] = molecular target: cathepsin D isolated from the human liver (Homo sapiens (Human), UniProt P07339); assay: In-vitro fluorescence assay for identification of cathepsin D inhibitors; format: biochemical; settings: cathepsin D 1.4 nM, pH 5.5; values in E notation; read-out: Cath D IC50
Protocol: In order to identify modulators of cathepsin D activity, a continuous enzymatic test was carried out with a synthetic peptide which carries a fluorescent group (MCA=(7-methoxycoumarin-4-yl)acetyl) which is quenched by energy transfer from a Dpn (2,4 dinitrophenyl) group on the same molecule, in Greiner 384-well nb microtitre plates. Cleavage of the peptidic substrate by cathepsin D causes an increase in the fluorescence intensity. In order to determine the efficacy of substances, the time-dependent increase in the fluorescence intensity in the presence of the substance was compared with the time-dependent increase in fluorescence in the absence of substances. The reference substance used was pepstatin A (Sigma-Aldrich). The substrate used was MCA-GKPILFFRLK(Dnp)d-R—NH2 (Enzo Life Sciences, Lor-rach). The enzyme employed was cathepsin D isolated from the human liver (Sigma-Aldrich) in a final concentration of 1.4 nM. The test was carried out in 100 mM sodium acetate buffer, 1.25% (v/v) of DMSO, 0.25% (w/v) of Chaps, pH 5.5. 2 μl of each substance solution with serially diluted substance concentration were added to in each case 4 μl of cathepsin D solution and incubated at room temperature for 10 min. The reaction was started by addition of 2 μl of substrate solution (final concentration 5 μM). After carrying out a starting-point fluorescence measurement (excitation wavelength 340 nm/emission wavelength 450 nm) using an Envision multilabel reader (Perkin Elmer), the reaction was incubated at room temperature for 60 min. The amount of peptide fragment cleaved off during the reaction time was subsequently measured by determination of the increase in the fluorescence intensity at 450 nm (excitation wavelength 340 nm).
The IC50 values of the compounds according to the invention can be obtained from Table 2 from Example 1.

Chain of recombinant human renin (P00797 67-406): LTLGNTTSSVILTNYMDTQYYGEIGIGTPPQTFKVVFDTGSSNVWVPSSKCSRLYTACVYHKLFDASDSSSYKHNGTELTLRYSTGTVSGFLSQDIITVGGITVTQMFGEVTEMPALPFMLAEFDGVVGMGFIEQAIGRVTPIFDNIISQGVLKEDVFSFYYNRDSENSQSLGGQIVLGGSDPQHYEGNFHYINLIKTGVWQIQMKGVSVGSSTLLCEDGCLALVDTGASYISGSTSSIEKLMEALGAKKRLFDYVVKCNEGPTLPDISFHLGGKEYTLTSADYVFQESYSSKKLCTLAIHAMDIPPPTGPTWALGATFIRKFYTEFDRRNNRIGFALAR
Chain of cathepsin D isolated from the human liver (P07339 65-161): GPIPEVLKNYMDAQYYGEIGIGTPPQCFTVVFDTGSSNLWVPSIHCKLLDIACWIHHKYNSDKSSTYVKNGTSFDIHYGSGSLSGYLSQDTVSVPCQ
Chain of cathepsin D isolated from the human liver (P07339 169-412): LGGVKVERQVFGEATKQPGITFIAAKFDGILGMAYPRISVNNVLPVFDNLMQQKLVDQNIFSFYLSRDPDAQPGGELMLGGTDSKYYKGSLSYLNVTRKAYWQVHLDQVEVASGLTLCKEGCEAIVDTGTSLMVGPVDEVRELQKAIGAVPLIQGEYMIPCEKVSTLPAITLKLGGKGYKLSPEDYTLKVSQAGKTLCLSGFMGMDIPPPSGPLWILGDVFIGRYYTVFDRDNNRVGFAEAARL

Row | SMILES | inhibition of autodigestion of the cartilage [1] | IC50 [2] | also measured
1 | C[C@]12C=CC(=O)C=C1CC[C@H]1[C@@H]3C[C@@H](O)[C@](O)(C(=O)CO)[C@@]3(C)C[C@H](O)[C@@]12F [TAC, Triamcinolone] |  |  | reduction of CAR-induced swelling (rat knee joint): capable of reducing the CAR-induced swelling
2 | CC(C)c1nc(CN(C)C(=O)N[C@H](C(=O)N[C@@H](Cc2ccccc2)C[C@H](O)[C@H](Cc2ccccc2)NC(=O)OCc2cncs2)C(C)C)cs1 [ritonavir] | inhibited virtually completely |  | 
3 | CC[C@H](C)[C@H](NC(=O)CC[C@H](O)[C@H](Cc1ccccc1)NC(=O)[C@@H](NC(=O)Cc1cccc(OC(F)(F)F)c1)C(C)C)C(=O)N[C@H](C(=O)O)C(C)C [Compound A22, (S)-2-[(2S,3S)-2-((4S,5S)-4-Hydroxy-5-{(S)-3-methyl-2-[2-(3-trifluoro-methoxyphenyl)acetylamino]butyrylamino}-6-phenylhexanoylamino)-3-methylpentanoylamino]-3-methylbutyric acid] |  | 350 nM | IC50 (recombinant human renin): > 30000 nM
4 | CC[C@H](C)[C@H](NC(=O)CC[C@H](O)[C@H](Cc1ccccc1)NC(=O)[C@@H](NC(=O)[C@H](CC(C)C)NC(=O)CC(C)C)C(C)C)C(=O)N[C@H](C(=O)O)C(C)C [Compound A21, (S)-2-[(2S,3S)-2-((4S,5S)-4-Hydroxy-5-{(S)-3-methyl-2-[(S)-4-methyl-2-(3-methylbutyrylamino)pentanoylamino]butyrylamino}-6-phenylhexanoyl-amino)-3-methylpentanoylamino]-3-methylbutyric acid] (Isovaleryl-LV[Hexanoyl(5S-NH,4S-OH,6-Ph)]IV-OH) |  | 24 nM | IC50 (recombinant human renin; values in E notation): 12000 nM
5 | CC(C)CC(=O)N[C@H](C(=O)N[C@H](C(=O)N[C@@H](CC(C)C)[C@@H](O)CC(=O)N[C@@H](C)C(=O)N[C@@H](CC(C)C)[C@@H](O)CC(=O)O)C(C)C)C(C)C [pepstatin] (Isovaleryl-VV[Sta]A[Sta]-OH) | inhibited virtually completely |  | 
